According to PubChem BioAssay AID1259407 (Chemical Carcinogenesis Research Information System (CCRIS), 2018):
Active and inactive are the calls of the source. No rule for the calls is given here.

System: CCRIS mutagenicity, Ames/micronucleus/aberration tests
Test: CCRIS mutagenicity studies
Conditions: Test System: AMES SALMONELLA TYPHIMURIUM

Cc1cc(O)ccc1Cl
mutagenic call (Strain/Indicator: TA97, Metabolic Activation: HAMSTER, LIVER, S-9, AROCLOR 1254 (10%), Method: PREINCUBATION): inactive; negative
mutagenic call (Strain/Indicator: TA97, Metabolic Activation: HAMSTER, LIVER, S-9, AROCLOR 1254 (30%), Method: PREINCUBATION): inactive; negative
mutagenic call (Strain/Indicator: TA97, Metabolic Activation: NONE, Method: PREINCUBATION): inactive; negative
mutagenic call (Strain/Indicator: TA97, Metabolic Activation: NONE, Method: STANDARD PLATE): inactive; negative
mutagenic call (Strain/Indicator: TA97, Metabolic Activation: RAT, LIVER, S-9, AROCLOR 1254 (10%), Method: PREINCUBATION): inactive; negative
mutagenic call (Strain/Indicator: TA97, Metabolic Activation: RAT, LIVER, S-9, AROCLOR 1254 (30%), Method: PREINCUBATION): inactive; negative
mutagenic call (Strain/Indicator: TA97, Metabolic Activation: RAT, LIVER, S-9, AROCLOR 1254, Method: STANDARD PLATE): active; positive
mutagenic call (Strain/Indicator: TA98, Metabolic Activation: HAMSTER, LIVER, S-9, AROCLOR 1254 (10%), Method: PREINCUBATION): inactive; negative
mutagenic call (Strain/Indicator: TA98, Metabolic Activation: HAMSTER, LIVER, S-9, AROCLOR 1254 (30%), Method: PREINCUBATION): inactive; negative
mutagenic call (Strain/Indicator: TA98, Metabolic Activation: NONE, Method: PREINCUBATION): inactive; negative
mutagenic call (Strain/Indicator: TA98, Metabolic Activation: NONE, Method: STANDARD PLATE): inactive; negative
mutagenic call (Strain/Indicator: TA98, Metabolic Activation: RAT, LIVER, S-9, AROCLOR 1254 (10%), Method: PREINCUBATION): inactive; negative
mutagenic call (Strain/Indicator: TA98, Metabolic Activation: RAT, LIVER, S-9, AROCLOR 1254 (30%), Method: PREINCUBATION): inactive; negative
mutagenic call (Strain/Indicator: TA98, Metabolic Activation: RAT, LIVER, S-9, AROCLOR 1254, Method: STANDARD PLATE): inactive; negative
mutagenic call (Strain/Indicator: TA100, Metabolic Activation: HAMSTER, LIVER, S-9, AROCLOR 1254 (10%), Method: PREINCUBATION): inactive; negative
mutagenic call (Strain/Indicator: TA100, Metabolic Activation: HAMSTER, LIVER, S-9, AROCLOR 1254 (30%), Method: PREINCUBATION): inactive; negative
mutagenic call (Strain/Indicator: TA100, Metabolic Activation: NONE, Method: PREINCUBATION): inactive; negative
mutagenic call (Strain/Indicator: TA100, Metabolic Activation: NONE, Method: STANDARD PLATE): inactive; negative
mutagenic call (Strain/Indicator: TA100, Metabolic Activation: RAT, LIVER, S-9, AROCLOR 1254 (10%), Method: PREINCUBATION): inactive; negative
mutagenic call (Strain/Indicator: TA100, Metabolic Activation: RAT, LIVER, S-9, AROCLOR 1254 (30%), Method: PREINCUBATION): inactive; negative
mutagenic call (Strain/Indicator: TA100, Metabolic Activation: RAT, LIVER, S-9, AROCLOR 1254, Method: STANDARD PLATE): inactive; negative
mutagenic call (Strain/Indicator: TA104, Metabolic Activation: NONE, Method: STANDARD PLATE): inactive; negative
mutagenic call (Strain/Indicator: TA104, Metabolic Activation: RAT, LIVER, S-9, AROCLOR 1254, Method: STANDARD PLATE): inactive; negative
mutagenic call (Strain/Indicator: TA1535, Metabolic Activation: HAMSTER, LIVER, S-9, AROCLOR 1254 (10%), Method: PREINCUBATION): inactive; negative
mutagenic call (Strain/Indicator: TA1535, Metabolic Activation: HAMSTER, LIVER, S-9, AROCLOR 1254 (30%), Method: PREINCUBATION): inactive; negative
mutagenic call (Strain/Indicator: TA1535, Metabolic Activation: NONE, Method: PREINCUBATION): inactive; negative
mutagenic call (Strain/Indicator: TA1535, Metabolic Activation: NONE, Method: STANDARD PLATE): inactive; negative
mutagenic call (Strain/Indicator: TA1535, Metabolic Activation: RAT, LIVER, S-9, AROCLOR 1254 (10%), Method: PREINCUBATION): inactive; negative
mutagenic call (Strain/Indicator: TA1535, Metabolic Activation: RAT, LIVER, S-9, AROCLOR 1254 (30%), Method: PREINCUBATION): inactive; negative
mutagenic call (Strain/Indicator: TA1535, Metabolic Activation: RAT, LIVER, S-9, AROCLOR 1254, Method: STANDARD PLATE): inactive; negative
mutagenic call (Strain/Indicator: TA1537, Metabolic Activation: HAMSTER, LIVER, S-9, AROCLOR 1254 (30%), Method: PREINCUBATION): inactive; negative
mutagenic call (Strain/Indicator: TA1537, Metabolic Activation: NONE, Method: PREINCUBATION): inactive; negative
mutagenic call (Strain/Indicator: TA1537, Metabolic Activation: NONE, Method: STANDARD PLATE): inactive; negative
mutagenic call (Strain/Indicator: TA1537, Metabolic Activation: RAT, LIVER, S-9, AROCLOR 1254 (30%), Method: PREINCUBATION): inactive; negative
mutagenic call (Strain/Indicator: TA1537, Metabolic Activation: RAT, LIVER, S-9, AROCLOR 1254, Method: STANDARD PLATE): inactive; negative
